Literature values, collected in patent publication US6989450B2 (priority 2000, dated 2006).
Like-named read-outs stand apart in the source and are kept apart here.

Experiments:
[1] = tested on: multidrug resistant cell lines
[2] = tested on: P-glycoprotein expressing KBV-1 cells; conditions: P-glycoprotein (MDR protein) expressing KBV-1 cells
[3] = target: microtubule, or polymeric, form of tubulin; conditions: binding to polymeric tubulin
[4] = water solubility; comparison with taxol

SMILES	potency relative to Taxol [1]	IC50 [2] [µM]	KD [3]	potency relative to Taxol ([1]; multidrug resistant cell lines / cancerous cells with acquired multiple drug resistance)	potency relative to Taxol ([1]; multidrug resistant cell lines / cancerous cells with acquired multiple drug resistance, listed as 1)	solubility [4]
C/C(=C\c1csc(C)n1)[C@@H]1C[C@@H]2O[C@@H]2CCC[C@H](C)[C@H](O)[C@@H](C)C(=O)C(C)(C)[C@@H](O)CC(=O)O1 [Epothilone A]	thousand-fold more potent					
CC(=O)O[C@H]1C(=O)[C@@]2(C)[C@H]([C@H](OC(=O)c3ccccc3)[C@]3(O)C[C@H](OC(=O)[C@H](O)[C@@H](NC(=O)c4ccccc4)c4ccccc4)C(C)=C1C3(C)C)[C@]1(OC(C)=O)CO[C@@H]1C[C@@H]2O [Taxol]		23	micromolar			
C/C(=C\c1csc(C)n1)[C@@H]1C[C@@H]2O[C@]2(C)CCC[C@H](C)[C@H](O)[C@@H](C)C(=O)C(C)(C)[C@@H](O)CC(=O)O1 [Epothilone B]		0.058		thousand-fold more active than Taxol	thousand-fold more potent	better solubility than taxol
